Measurements from PubChem BioAssay (NCI).
Where “and” joins values, the source holds several entries; their conditions need not be identical. Identical values can stand only once.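 Each compound was tested at five concentrations against cells in 96-well plates for 48 hours. The concentration for 50% growth inhibition is given as GI50. The concentration for full growth arrest is given as TGI.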

How the values were obtained:
Assay in all cases: inhibition of tumour cell growth, NCI panel, 48 h
[1] = test system: HL-60(TB) leukemia
[2] = test system: SNB-19 CNS
[3] = test system: HCT-116 colon
[4] = test system: SK-MEL-5 melanoma
[5] = test system: KM12 colon
[6] = test system: COLO 205 colon
[7] = test system: NCI-H522 lung
[8] = test system: SNB-75 CNS
[9] = test system: CCRF-CEM leukemia
[10] = test system: MDA-MB-435

Row | Structure (SMILES) | TGI [1] | TGI [2] | GI50 [3] | TGI [3] | GI50 [4] | TGI [4] | TGI [5] | GI50 [6] | TGI [6] | GI50 [7] | TGI [7] | GI50 [8] | TGI [8] | GI50 [9] | TGI [9] | GI50 [10] | TGI [10] | GI50 [1] | GI50 [2] | GI50 [5]
1 | O=C1C=C2C=CC3CC2(O1)C1CCCCN31 (configuration not stated) | 79.2 µM | > 100 µM and 55.5 µM | 14.2 µM and 12.5 µM and 36.5 µM | 30.3 µM and 26.6 µM and > 100 µM | 15.9 µM and 19.9 µM and 34.9 µM | 33.5 µM and 54.5 µM and > 100 µM | 70.7 µM and 28.5 µM and 57.6 µM | 21.6 µM and 15.1 µM and 58.7 µM | 73.5 µM and 29.3 µM and > 100 µM | 10.1 µM and 11.1 µM and 32.8 µM | 28.1 µM and 32.4 µM and > 100 µM | 24.2 µM and 14.6 µM and 31.7 µM | > 100 µM and 62.3 µM and 95.8 µM | 15.3 µM and 11 µM and 28.4 µM | 96.6 µM and 41.3 µM and 83.3 µM | 10.1 µM and 8.06 µM and 22 µM | 41.6 µM and 39.3 µM and 66.3 µM |  |  | 
2 | Cc1cc(C(=O)Nc2cc(Oc3ccc4nc(NC(=O)C5CC5)cn4n3)ccc2C)n(C)n1 | > 10 µM | > 10 µM | 5.66 µM | > 10 µM | > 10 µM | > 10 µM | > 10 µM | > 10 µM | > 10 µM | > 10 µM | > 10 µM | > 10 µM | > 10 µM | > 10 µM | > 10 µM | 3.22 µM | > 10 µM | 9.56 µM | > 10 µM | > 10 µM
3 | CCCCCCCCCCCC[N+](C)(C)Cc1ccccc1 | 2.85 µM | 7.12 µM | 1.33 µM | 2.8 µM | 1.33 µM | 2.62 µM | 3.14 µM | 1.65 µM | 3.34 µM | 1.53 µM | 3.95 µM | 1.45 µM | 3.53 µM | 1.88 µM | 5.43 µM | 1.58 µM | 3.72 µM | 1.02 µM | 2.11 µM | 1.48 µM
4 | CN(C)c1ccc(C(=N)c2ccc(N(C)C)cc2)cc1 | 14.8 µM | > 100 µM | 2.41 µM and 3.46 µM | 14.2 µM and 41 µM | 2.74 µM and 2.92 µM | 10.9 µM and 13.2 µM | 16.2 µM and 21.5 µM | 2.49 µM and 2.16 µM | 10.7 µM and 8.83 µM | 0.503 µM and 1.16 µM | 5.01 µM and 9.45 µM | 1.65 µM and 1.63 µM | 11.4 µM and 7.35 µM | 5.33 µM | 64.5 µM | 0.375 µM and 0.382 µM | 3.19 µM and 9.02 µM | 3.3 µM | 4.38 µM and 16 µM | 1.58 µM and 1.65 µM
5 | c1cc(CN2CCCNCCNCCCNCC2)ccc1CN1CCCNCCNCCCNCC1 | > 100 µM | > 100 µM | > 100 µM | > 100 µM | > 100 µM | > 100 µM | > 100 µM | > 100 µM | > 100 µM | > 100 µM | > 100 µM | > 100 µM | > 100 µM | > 100 µM | > 100 µM | > 100 µM | > 100 µM | > 100 µM | > 100 µM | > 100 µM
6 | COc1cccc(-n2ncc3c(N/N=C/c4ccc(C)cc4)ncnc32)c1 | > 25 µM | > 25 µM | > 25 µM | > 25 µM | > 25 µM | > 25 µM | > 25 µM | 9.56 µM | > 25 µM | > 25 µM | > 25 µM | > 25 µM | > 25 µM | > 25 µM | > 25 µM | > 22.4 µM | > 25 µM | > 25 µM | > 25 µM | > 25 µM
7 | Nc1ncnc2c1c(-c1ccc(Oc3ccccc3)cc1)nn2C[C@H]1SSC[C@@H]1O | 4.84 µM | 12 µM | 0.332 µM | 12.3 µM | 0.545 µM | 1.79 µM | 16.4 µM | 2.06 µM | 9.82 µM | 3.85 µM | 14 µM | 3.02 µM | 14.8 µM | 0.2 µM | 6.28 µM | 0.162 µM | 0.324 µM | 1.52 µM | 1.4 µM | 0.242 µM
8 | CC(CN(C)C)S(=O)(=O)c1ccc(-c2cnc(N)c(C(=O)Nc3ccccc3)n2)cc1 (configuration not stated) | 11 µM | 75.1 µM | 4.88 µM | 21.2 µM | 2.93 µM | 11.5 µM | 28.7 µM | 2.74 µM | 8.56 µM | 17.5 µM | 35.9 µM | 2.58 µM | 35.5 µM | 2.61 µM | 29.6 µM | 4.51 µM | 23.8 µM | 3.05 µM | 16.3 µM | 11.1 µM
9 | O=C1NC(O)c2ccccc2O1 (configuration not stated) | > 100 µM | > 100 µM |  | > 100 µM |  | > 100 µM | > 100 µM |  | > 100 µM |  | > 100 µM |  | > 100 µM |  | > 100 µM |  | > 100 µM |  |  | 
10 | COC1(OC)C2(Cl)C(Cl)=C(Cl)C1(Cl)C1c3ccc(C(C)=O)c4cccc(c34)C12 (configuration not stated) | 47.3 µM | > 100 µM |  | > 100 µM |  | 27.7 µM | > 100 µM |  | 34.8 µM |  | > 70.2 µM |  | > 89.9 µM |  | > 79.2 µM |  | 43.5 µM |  |  | 
11 | C/C(=N\NC(=O)CC#N)C(CN1CCCCC1)C(c1ccccc1)c1c(O)c2ccccc2oc1=O (configuration not stated) | 63.3 µM | > 100 µM |  | > 100 µM |  | > 100 µM | > 100 µM |  | 32.6 µM |  | > 100 µM |  | > 100 µM |  | 73.5 µM |  | > 100 µM |  |  | 
12 | CC/C=C\C[C@H](O)C/C=C1/C(=O)C=C[C@@H]1C/C=C\CCCC(=O)OC(C)C | 6.71 µM | 12.8 µM | 0.245 µM | 0.64 µM | 1.17 µM | 2.51 µM | 3.08 µM | 1.79 µM | 3.87 µM | 1.25 µM | 2.88 µM | 4.78 µM | 19.7 µM | 0.425 µM | 2.53 µM | 0.572 µM | 2.7 µM | 0.824 µM | 3.3 µM | 1.36 µM
